{"source": "patent US20190216786A1", "about": "“USE OF 2-{4-[(4-{[1-CYCLOPROPYL-3-TETRAHYDRO-2H-PYRAN-4-yl)-1H-PYRAZOL-4yl]OXY} PYRIDINE-2-yl)AMINO]PYRIDIN-2-yl}PROPAN-2-OL IN THE TREATMENT OF CANCER” (Eli Lilly and Company, priority 2016, published 2019)", "key": {"in vivo": {"assay": "in vivo", "set-up": "species or system dogs", "details": "dog", "from_the_text": "(§1) Due to the cardiac effects observed with daily dosing in preclinical models, intermittent-dosing toxicology studies administering 2-{4-[(4-{[1-cyclopropyl-3-(tetrahydro-2H-pyran-4-yl)-1H-pyrazol-4-yl]oxy}pyridin-2-yl)amino]pyridin-2-yl}propan-2-ol 4-methylbenzenesulfonate for 3 months in dogs and rats were completed to support clinical dosing. The two dosing schedules evaluated were 2 weeks of daily dosing followed by 2 weeks of no dosing (2 weeks on/2 weeks off) or 3 weeks of daily dosing followed by 1 week of no-dosing (3 weeks on/1 week off). […] Margins of safety based on the NOAELs for the 3-month studies support the proposed clinical dose range of 10 to 100 mg in patients."}, "[1]": {"assay": "3-month intermittent-dosing toxicology study in rats", "assay_type": "in vivo", "from_the_text": "as §1"}}, "data": [{"smiles": "CC(C)(O)c1cc(Nc2cc(Oc3cn(C4CC4)nc3C3CCOCC3)ccn2)ccn1", "note": "[2-{4-[(4-{[1-cyclopropyl-3-(tetrahydro-2H-pyran-4-yl)-1H-pyrazol-4-yl]oxy}pyridin-2-yl)amino]pyridin-2-yl}propan-2-ol 4-methylbenzenesulfonate]", "values": [{"measurement": "NOAEL at 3 months", "setting": "in vivo", "result": 7.5, "unit": "mg/kg"}, {"measurement": "adverse effects", "setting": "in vivo", "result": "no adverse effects"}, {"measurement": "cardiac effects", "setting": "[1]; rat, 12 mg/kg, 3 cycles of the 3-week-on/1-week-off schedule", "result": "limited to aortic inflammation and degeneration in a single female animal"}, {"measurement": "compound-related, adverse effects", "setting": "[1]; rats, 3 months, 2-week on/2-week-off dosing schedule", "result": "no compound-related, adverse effects detected"}]}]}
